Drawing on patent US4822787A, “3-pyrrolidinylthio-1-azabicyclo(3.2.0)-hept-2-ene-2-carboxylic acid compounds and antimicrobial activity thereof” (Fujisawa Pharmaceutical Co., Ltd., priority 1986, dated 1989), this text covers MIC for 2 compounds.

Holding throughout (type): cell-based
For one experiment, the system named is S. aureus 2496. In words: in vitro Antimicrobial Activity, two-fold agar-plate dilution method (MIC), S. aureus 2496. To be noted: Staphylococcus aureus, Mueller Hinton agar, 37° C., 20 hours, read-out: minimal inhibitory concentration (MIC). Here is the method: (§1) in vitro Antimicrobial Activity was determined by the two-fold agar-plate dilution method as described below. One loopful of 100-fold dilution of an overnight culture of a test strain in Mueller Hinton broth (Difco) (approximately 10^6 viable cells per ml) was spot-inoculated on Mueller Hinto agar^(*) (Difco) containing graded concentrations of the test compound, and the minimal inhibitory concentration (MIC) was expressed in terms of μg/ml after incubation at 37° C. for 20 hours.

Another experiment has as its system P. aeruginosa 3036. In words: in vitro Antimicrobial Activity, two-fold agar-plate dilution method (MIC), P. aeruginosa 3036. To be noted: Pseudomonas aeruginosa, Mueller Hinton agar, 37° C., 20 hours, read-out: minimal inhibitory concentration (MIC). On the procedure: as §1
In another experiment the test system is E. cloacae 3013. In words: in vitro Antimicrobial Activity, two-fold agar-plate dilution method (MIC), E. cloacae 3013. As to conditions: Enterobacter cloacae, Mueller Hinton agar, 37° C., 20 hours, read-out: minimal inhibitory concentration (MIC). Here is the method: as §1
The test system of another experiment is H. influenzae 58. In words: in vitro Antimicrobial Activity, two-fold agar-plate dilution method (MIC), H. influenzae 58. As to conditions: Haemophilus influenzae, added 5% horse blood-chocolate agar, 37° C., 20 hours, read-out: minimal inhibitory concentration (MIC). On the procedure:
in vitro Antimicrobial Activity was determined by the two-fold agar-plate dilution method as described below. One loopful of 100-fold dilution of an overnight culture of a test strain in Mueller Hinton broth (Difco) (approximately 10^6 viable cells per ml) was spot-inoculated on Mueller Hinto agar^(*) (Difco) containing graded concentrations of the test compound, and the minimal inhibitory concentration (MIC) was expressed in terms of μg/ml after incubation at 37° C. for 20 hours. [(*)added 5% horse blood-chocolate agar for the test of H. influenzae]

The structures appear in SMILES notation. Converted amounts (≈) assume the structure as drawn. Where only a bound is given, the exact number is not on record here.

As for `C[C@@H](O)[C@H]1C(=O)N2C(C(=O)O)=C(S[C@@H]3CN[C@H](COCCNC(N)=O)C3)[C@H](C)[C@H]12` [Compound of this invention, (4R,5S,6S)-6-[(1R)-1-hydroxyethyl]-4-methyl-7-oxo-3-[(2S,4S)-2-{(2-ureidoethyl)oxymethyl}pyrrolidin-4-yl]thio-1-azabicyclo[3.2.0]hept-2-ene-2-carboxylic acid], the MIC in the experiment with S. aureus 2496 is 0.05 µg/mL (≈ 0.117 µM); with P. aeruginosa 3036, 0.39 µg/mL (≈ 0.91 µM); with E. cloacae 3013, at most 0.025 µg/mL; with H. influenzae 58, 0.1 µg/mL (≈ 0.233 µM).

`C[C@@H](O)[C@H]1C(=O)N2C(C(=O)O)=C(S[C@@H]3CN[C@H](CNC(N)=O)C3)[C@H](C)[C@H]12` [Reference Compound, (4R,5S,6S)-6-[(1R)-1-hydroxyethyl]-4-methyl-7-oxo-3-[(2S,4S)-2-ureidomethylpyrrolidin-4-yl]thio-1-azabicyclo[3.2.0]hept-2-ene-2-carboxylic acid]: the MIC in the experiment with S. aureus 2496 was 1.56 µg/mL (≈ 4.06 µM); in the experiment on P. aeruginosa 3036 it was 1.56 µg/mL (≈ 4.06 µM); in the experiment on E. cloacae 3013 it was 0.1 µg/mL (≈ 0.26 µM); in the experiment with H. influenzae 58 it was 0.78 µg/mL (≈ 2.03 µM).
